{
  "source": "patent US20230310441A1",
  "about": "“TREATMENT FOR SCHIZOPHRENIA” (TAKEDA PHARMACEUTICAL COMPANY, priority 2020, published 2023)",
  "key": {"[1]": {"test": "Phase 2 crossover study: safety in subjects with stable schizophrenia", "assay_type": "in vivo, human", "text": "The safety analysis set consisted of all subjects who were enrolled and received at least 1 dose of study drug. Safety measurements included adverse events, physical examinations, vital signs, clinical laboratory evaluations, ECGs, and C-SSRS."}, "[2]": {"test": "Phase 1 FIH study: safety and tolerability (TEAEs) in healthy participants", "assay_type": "in vivo, human", "procedure": "A phase 1 first-in-human (FIH) study was conducted at a single site in the United States to evaluate the safety, tolerability, and pharmacokinetics (PK) of Compound (I). Specifically, Compound (I) was tested to evaluate the safety, tolerability, and PK of single and multiple doses in healthy participants and as add-on therapy to antipsychotics in participants with stable schizophrenia. The phase I study also assessed the oral bioavailability of Compound (I) in healthy participants administered a tablet formulation compared to an oral suspension formulation in a fasted state, as well the effect of a high-fat, high-calorie meal on the PK of a single dose of a tablet formulation of Compound (I). Additional exploratory pharmacodynamic analysis was undertaken in patients with stable schizophrenia to inform future studies.\nCohorts in Parts 1 and 2 were randomized to receive either Compound (I) or placebo in a 6:2 ratio. Cohorts in Part 3 were randomized in a 1:1 ratio, while the cohort in Part 4 was randomized in a 2:1 ratio.\nPart 1 was a double-blind, SRD study in healthy adults, utilizing an alternate panel design (cohorts 1, 2) and sequential panel design (cohorts 3-5). Cohorts 1 and 2 were part of a two-period, alternating-panel, double-blind study of Compound (I) administered as an oral suspension (5 mg, 10 mg, 20 mg, or 40 mg) or matched placebo, with a washout period of at least 7 days between treatment periods. Cohorts 3-5 were part of a sequential-panel, double-blind study to evaluate the SRDs of Compound (I) (80, 120, or 160 mg, respectively) or matched placebo. Although planned, all subsequent doses after the dose of 80 mg were determined based on emerging safety, tolerability, and PK data from the preceding cohorts.\nIn Part 2, participants received either placebo on all dosing days or a loading dose of Compound (I) on Day 1 and a maintenance dose of half the initial dose on Days 8, 15 and 22, administered as an oral suspension. Baseline measurements were obtained on Day −2, and study-specific measurements were obtained following oral dose administrations on Days 1, 8, 15, and 22.\nPart 3 was a randomized, open-label, single-dose, parallel design study to evaluate the bioavailability of a Compound (I) tablet formulation relative to a Compound (I) oral suspension formulation and the effect of food on the PK in healthy participants. The immediate release tablet contained mannitol, microcrystalline cellulose, and other commonly used excipients. Participants were randomized 1:1 to receive a single 40 mg dose of Compound (I) as a tablet after either 10 h overnight fast, or 30 min after beginning ingestion of a high-fat, high-calorie breakfast.\nSafety measurements used in the phase 1 study included treatment-emergent adverse events (TEAEs), physical examinations, weight, height, BMI, vital signs, clinical laboratory evaluations, pregnancy monitoring, and ECG procedures.\nTEAEs were defined as any adverse event that occurred or worsened after receiving the first dose of Compound (I) and within 6 weeks after the last dose of Compound (I). Participants experiencing two or more different TEAEs were counted only once. Frequent TEAEs were defined as adverse events that occurred in at least two participants in any treatment. Participants were evaluated with respect to mood and alertness (BL-VAS) and suicidality (C-SSRS)."}, "[3]": {"test": "Separate single dose oral study: half-life in dogs", "details": "dog, in vivo; single dose oral administration of 5-15 mg/kg", "text": "(§1) The mean t1/2z for Compound (I) reflects the prolonged half-life of Compound (I) in humans. […] In that study, the mean human half-life of Compound (I) (approximately 11 days) was substantially higher than the 2-4 hr mean half-life observed in rats and dogs."}, "[4]": {"test": "Separate single dose oral study: half-life in rats", "details": "rat, in vivo; single dose oral administration of 5-15 mg/kg", "text": "as §1"}, "[5]": {"test": "Separate single dose oral study: half-life in humans", "details": "human, in vivo; single dose oral administration", "text": "as §1"}, "[6]": {"details": "Part 2 MRD, 40/20 mg, N = 6, participants (percent)"}, "[7]": {"details": "Part 2 MRD, 80/40 mg, N = 6, participants (percent)"}, "[8]": {"details": "Part 2 MRD, 120/60 mg, N = 6, participants (percent)"}, "[9]": {"details": "Part 2 MRD, 160/80 mg, N = 6, participants (percent)"}},
  "data": [
    {"smiles": "C[C@H](NC(=O)Cn1nnc2ccccc2c1=O)c1ccc(OC(F)(F)F)cc1", "note": "[Compound (I), (S)-2-(4-oxobenzo[d][1,2,3]triazin-3(4H)-yl)-N-(1-(4-(trifluoromethoxy)phenyl)ethyl)acetamide]", "values": [
      {"measurement": "deaths or serious adverse events", "setting": "[1]; phase 2", "value": "no deaths or serious adverse events"},
      {"measurement": "discontinuation of study medication due to TEAEs", "setting": "[1]; phase 2", "value": "No subjects discontinued study medication due to TEAEs"},
      {"measurement": "safety and tolerability", "setting": "[1]; phase 2, single doses 40 or 160 mg, add-on to antipsychotics", "value": "safe and well-tolerated"},
      {"measurement": "TEAEs related to the study drug (investigator)", "setting": "[2]; Part 1 (SRD)", "value": "None of the TEAEs were considered to be related to the study drug"},
      {"measurement": "participants who experienced a TEAE", "setting": "[2]; Part 1 (SRD), participants who received Compound (I)", "value": 20.0, "unit": "%"},
      {"measurement": "Any TEAE", "setting": "[2]; [6]", "value": "4 (66.7)"},
      {"measurement": "TEAE Mild", "setting": "[2]; [6]", "value": "4 (66.7)"},
      {"measurement": "TEAE Not related", "setting": "[2]; [6]", "value": "4 (66.7)"},
      {"measurement": "Any TEAE", "setting": "[2]; [7]", "value": "4 (66.7)"},
      {"measurement": "TEAE Mild", "setting": "[2]; [7]", "value": "4 (66.7)"},
      {"measurement": "TEAE Not related", "setting": "[2]; [7]", "value": "3 (50.0)"},
      {"measurement": "TEAE Related", "setting": "[2]; [7]", "value": "1 (16.7)"},
      {"measurement": "Any TEAE", "setting": "[2]; [8]", "value": "3 (50.0)"},
      {"measurement": "TEAE Mild", "setting": "[2]; [8]", "value": "2 (33.3)"},
      {"measurement": "TEAE Moderate", "setting": "[2]; [8]", "value": "1 (16.7)"},
      {"measurement": "TEAE Not related", "setting": "[2]; [8]", "value": "3 (50.0)"},
      {"measurement": "Any TEAE", "setting": "[2]; [9]", "value": "5 (83.3)"},
      {"measurement": "TEAE Mild", "setting": "[2]; [9]", "value": "5 (83.3)"},
      {"measurement": "TEAE Not related", "setting": "[2]; [9]", "value": "2 (33.3)"},
      {"measurement": "TEAE Related", "setting": "[2]; [9]", "value": "3 (50.0)"},
      {"measurement": "participants who experienced a TEAE", "setting": "[2]; Part 3, single dose after overnight fast of at least 10 h, tablet", "value": 11.1, "unit": "%"},
      {"measurement": "participants who experienced a TEAE", "setting": "[2]; Part 3, single dose following high-fat, high-calorie breakfast, tablet", "value": 22.2, "unit": "%"},
      {"measurement": "discontinuations due to TEAEs", "setting": "[2]; phase 1 study, all parts", "value": "No discontinuations due to TEAEs occurred"},
      {"measurement": "deaths, serious adverse events, or other significant TEAEs", "setting": "[2]; phase 1 study, all parts, 114 randomized participants", "value": "No deaths, serious adverse events, or other significant TEAEs were reported"},
      {"measurement": "tolerability", "setting": "[2]; phase 1 study, single and repeated oral doses, healthy volunteers and patients with stable schizophrenia", "value": "generally well-tolerated"},
      {"measurement": "headache frequency vs placebo", "setting": "[2]; phase 1 study, frequency appeared to increase with higher doses", "value": "more frequently with Compound (I) than with placebo"},
      {"measurement": "half-life", "setting": "[3]", "value": "120 to 240", "unit": "min"},
      {"measurement": "half-life", "setting": "[4]", "value": "120 to 240", "unit": "min"},
      {"measurement": "half-life", "setting": "[5]", "value": "~11", "unit": "days"}
    ]}
  ]
}
